3 compounds from US20230398115A1, “MDM2 INHIBITORS AND COMBINATIONS THEREOF” (Novartis AG, priority 2015, published 2023) can be followed below.

The test system of one assay is HCT-116 xenografts. The assay can be described thus: HCT-116 xenograft in nude mice, tumor volume. The assay is classed as in vivo. As to conditions: for effect of sequential addition on tumor volume: day 19. On the procedure: All animal experiments were done in strict adherence to the Swiss law for animal protection. Female Crl:NU(NCr)-Foxn1nu mice were purchased from Charles River Laboratories International Inc (Germany) and kept in a pathogen-controlled environment. Subcutaneous tumors of HCT-116 (KRAS mutant, PIK3CA mutant, p53 wild-type) were induced by concentrating 3 million cells in 100 μl of PBS and injecting them in the right flank of nude mice. The mice were randomly grouped, and treatment was started when the tumor size reached 50 to 250 mm3. Each cohort included 8 mice. Tumor sizes were monitored three times weekly, and volumes were calculated with the following formula: (mm3)=length×width2×0.5.
COMPOUND A was dissolved in 0.5% hydroxypropyl methylcellulose, COMPOUND B was dissolved in 1% carboxymethylcellulose containing 0.5% Tween-80% in distilled water (pH7.6-8.0), and COMPOUND C was dissolved in Microemulsion pre-concentrate 5. All drugs were dosed orally using 5-10 ml/kg. COMPOUND A was administered three times a week (3qw) at 100 mg/kg. COMPOUND B and COMPOUND C were administered daily (q24 h) at 0.3 and 100 mg/kg, respectively. The combination dosing schedule and dosage were the same as the single reagents.
Six treatment cohorts (G1-G6) were tested: • G1: vehicle (DMSO) • G2: COMPOUND C • G3: COMPOUND A=>after 9 days treatment COMPOUND C was added • G4: COMPOUND B=>after 9 days treatment COMPOUND C was added • G5: COMPOUND A+COMPOUND B=>after 9 days treatment COMPOUND C was added • G6: COMPOUND A+COMPOUND B+COMPOUND C
For each tumor at each time-point the size was normalized to the size before the start of the treatment to obtain the “% Change tumor volume” (FIG. 17-18, y-axis). For FIG. 17 at each time point the mean size of all tumors per cohort was calculated, and the error of the size using the standard error of the mean (SEM). For FIG. 18 p-values were calculated using a one-tailed t test.

Assay [1] has as its system GP2d. The assay can be described thus: Cell proliferation, cell count by microscopy, HSA synergy (Examples 2-9). The class given is cell-based. As to conditions: Example 2, single agent, 72 h, cell count relative to DMSO. How it is done: (§1) After 24 h one 384-well plate per cell line was prepared for cell counting by microscopy (see below) without receiving treatment (=‘baseline’). The other cell plates were treated by transferring 25 nl of the 2000× compound from drug master plates using an ATS acoustic liquid dispenser (ECD Biosystems) and resulting in a final 1× concentration. COMPOUND A was used over a final concentration range of 13 nM-10 µM, COMPOUND B was used over a final concentration range of 13 nM-10 uM, and COMPOUND C was used over a final concentration range of 0.4 nM-0.3 µM (7 1:3 dilution steps). In order to assess the effect of the triple combination all individual COMPOUNDS (A, B, C), all three pair wise combinations (A+B, A+C, B+C), and the triple combination (A+B+C) were tested in the same experiment. Pair wise combinations and the triple combination were tested at a fixed ratio of 1:1 (for drug pairs) and 1:1:1 (for the drug triple) at each dilution resulting in 7 combination conditions per treatment. […] After compound addition 50 nl of 2 mM CellEvent Caspase-3/7 Green Detection Reagent (ThermoFisher, Catalog number C10423) were added to one of the three replicates using the HP D300 Digital Dispenser (Tecan). Caspase 3/7 induction was measured as a proxy for apoptosis induced by the treatments. Cells were treated for 72 h to 96 h depending on their doubling time (Table 4), and Caspase 3/7 activation was measured every 24 h by microscopy using an InCell Analyzer 2000 (GE Healthcare) equipped with a 4× objective and FITC excitation/emission filters. At the end of the treatment cells were prepared for cell counting by microscopy. Cells were fixed and permeabilised for 45 minutes in 4% PFA (Electron Microscopy Sciences, Catalog number 15714), 0.12% TX-100 (Electron Microscopy Sciences, Catalog number 22140) in PBS (Boston Bioproducts, Catalog number BM-220). After washing cells three times with PBS their DNA was stained for 30 minutes with Hoechst 33342 (ThermoFisher, Catalog number H3570) at a final concentration of 4 μg/ml. Cells were washed three times with PBS and then plates were heat-sealed using a PlateLoc (Agilent Technologies) with aluminum seals (Agilent Technologies, Catalog number 06644-001) and stored at 4° C. until imaging. All cells per well/treatment were captured in a single image by fluorescence microscopy using an InCell Analyzer 2000 (GE Healthcare) equipped with a 4× objective and DAPI excitation/emission filters.
(§2) Images were analyzed after adapting previously described methods (Horn, Sandmann et al. 2011) and using the Bioconductor package EBimage in R (Pau, Fuchs et al. 2010). Objects in both channels, DAPI (for Hoechst/DNA) and FITC (for Caspase 3/7), were segmented separately by adaptive thresholding and counted. A threshold for Caspase 3/7 positive objects was defined manually per cell line after comparing negative controls (DMSO) and positive controls (Staurosporine). By analyzing 17 additional object/nuclei features in the DNA channel (shape and intensity features) debris/fragmented nuclei were identified. To this end per cell line the distributions of the additional features between positive controls (Staurosporine) and negative controls (DMSO) were compared manually. Features that could differentiate between the conditions (e.g. a shift in the distribution of a feature measurement comparing DMSO with Staurosporine) where used to define the ‘debris’ population versus the population of ‘viable’ nuclei. The debris counts were subtracted from raw nuclei counts. The resulting nuclei number was used as measure of cell proliferation (‘cell count’).
(§3) The compound's effect on cell proliferation was calculated from the cell counts of the treatments relative to the cell counts of the negative control (DMSO), in FIG. 9 denoted as ‘Normalized cell count’ (=‘xnorm’) on the y-axis. Synergistic combinations were identified using the highest single agent model (HSA) as null hypothesis (Berenbaum 1989).

In another assay the test system is HCT-116. The description is as above. The class given is cell-based. As to conditions: 72 h, cell count relative to DMSO. How it is done:
as §1, §2, §3

For assay [2], the system named is LS-180. The assay is described as above. The class given is cell-based. As to conditions: 72 h, cell count relative to DMSO. On the procedure: as §1, §2, §3
For assay [3], the system named is LoVo. The assay is described as above. The assay is classed as cell-based. As to conditions: Example 2, single agent, 96 h, cell count relative to DMSO. On the procedure: as §1, §2, §3
Assay [4] has as its system RKO. The assay is described as above. As to conditions: 72 h, cell count relative to DMSO. The class given is cell-based. How it is done:
as §1, §2, §3

For a further assay, the system named is COLO-678. Nature of the assay: Cell proliferation, cell count by microscopy (Example 1). The class given is cell-based. As to conditions: colo678, single agent, 96 h treatment, cell count relative to DMSO. How it is done: (§4) To test the effect of the combination of COMPOUND A or COMPOUND B with COMPOUND C on cell proliferation cells were plated in black 384-well microplates with clear bottom (Matrix/Thermo Scientific, Catalog number 4332) in 50 ul media per well at cell densities between 500 and 1250 cells/well (Table 1) and allowed to incubate at 37 degrees, 5% CO2 for 24 h. After 24 h one 384-well plate per cell line was prepared for cell counting by microscopy (see below) without receiving treatment (=‘baseline’). The other cell plates were treated using a HP D300 Digital Dispenser (Tecan) generating 6-point dose response curves with 2.5× dilution steps.
(§5) COMPOUND A was used over a final concentration range of 51 nM-5 uM, COMPOUND B over a final concentration range of 10 nM-1 uM, and COMPOUND C over a final concentration range of 1 nM-100 nM.
(§6) For the combinations of COMPOUND A or COMPOUND B with COMPOUND C the single agents were combined at 6 single agent doses generating a dose matrix of 6×6=36 combination treatments. Additionally, negative controls (DMSO=‘vehicle’) and positive controls (Staurosporine=killing cells, 7-point 1:2 dilution series for a dose range of 16 nm-1 uM) were transferred as treatment controls. Cells were treated for 72 h to 96 h depending on their doubling time (Table 1). At the end of the treatment cells were prepared for cell counting by microscopy. Cells were fixed and permeabilised for 45 minutes in 4% PFA (Electron Microscopy Sciences, Catalog number 15714), 0.12% TX-100 (Electron Microscopy Sciences, Catalog number 22140) in PBS (Boston Bioproducts, Catalog number BM-220). After washing cells three times with PBS their DNA was stained for 30 minutes with Hoechst 33342 (ThermoFisher, Catalog number H3570) at a final concentration of 4 μg/ml. Cells were washed three times with PBS and then plates were heat-sealed using a PlateLoc (Agilent Technologies) with aluminum seals (Agilent Technologies, Catalog number 06644-001) and stored at 4° C. until imaging. All cells per well/treatment were captured in a single image by fluorescence microscopy using an InCell Analyzer 2000 (GE Healthcare) equipped with a 4× objective and DAPI excitation/emission filters.
as §2
(§7) The compound's effect on cell proliferation was calculated from the cell counts of the treatments relative to the cell counts of the negative control (DMSO), in FIGS. 1 and 2 denoted as ‘Normalized cell count’ on the y-axis.

The test system of assay [5] is GP2d. Described as above. The class given is cell-based. As to conditions: single agent, 72 h treatment, cell count relative to DMSO. On the procedure:
as §4, §5, §6, §2, §7

The subject of another assay is LIM2405. The assay is described as above. The assay is classed as cell-based. As to conditions: single agent, 72 h treatment, cell count relative to DMSO. On the procedure: as §4, §5, §6, §2, §7
Assay [6] has as its system LS-180. Described as above. As to conditions: ls180, single agent, 72 h treatment, cell count relative to DMSO. The assay is classed as cell-based. On the procedure:
as §4, §5, §6, §2, §7

In assay [7] the test system is LoVo. The description is as above. As to conditions: single agent, 96 h treatment, cell count relative to DMSO. The assay is classed as cell-based. How it is done:
as §4, §5, §6, §2, §7

Assay [8] relates to RKO. The description is as above. The class given is cell-based. As to conditions: single agent, 72 h treatment, cell count relative to DMSO. How it is done: as §4, §5, §6, §2, §7
The next assay has as its system SW48. The assay is described as above. The class given is cell-based. As to conditions: single agent, 96 h treatment, cell count relative to DMSO. How it is done:
as §4, §5, §6, §2, §7

Consider `CC1(C)CCC(c2ccc(Cl)cc2)=C(CN2CCN(c3ccc(C(=O)NS(=O)(=O)c4ccc(N[C@H](CCN5CCOCC5)CSc5ccccc5)c(S(=O)(=O)C(F)(F)F)c4)cc3)CC2)C1` [ABT-263], for which the “effect of sequential addition on tumor volume” value in the assay with HCT-116 xenografts (ABT-263 100 mg/kg q24h added after 9 days to single agent COMPOUND A (G3)) is reported as “no additional benefit”; with HCT-116 xenografts (ABT-263 100 mg/kg q24h added after 9 days to single agent trametinib (G4)), “stopped tumor progression”; in the assay with HCT-116 xenografts (ABT-263 100 mg/kg q24h added after 9 days to the combination of COMPOUND A and trametinib (G5)), “marked tumor regressions”.
Usually IC50 stands for the concentration at which inhibition is half-maximal. On to `CC1(C)CCC(c2ccc(Cl)cc2)=C(CN2CCN(c3ccc(C(=O)NS(=O)(=O)c4ccc(N[C@H](CCN5CCOCC5)CSc5ccccc5)c(S(=O)(=O)C(F)(F)F)c4)cc3)CC2)C1` [COMPOUND C], for which the IC50 in the assay with GP2d [1] was over 10 µM; in the assay on HCT-116 (Example 2, single agent), over 10 µM; in the assay with HCT-116 (Example 3, single agent), over 10 µM; with HCT-116 (Example 4, single agent) it was over 10 µM; in the assay with LS-180 [2] (Example 2, single agent), over 10 µM; with LS-180 [2] (Example 3, single agent) it was over 10 µM. The IC50 in the assay on LS-180 [2] (Example 4, single agent) was over 10 µM; in the assay on LoVo [3] it was over 10 µM; in the assay with RKO [4] (Example 2, single agent) it was over 10 µM; in the assay on RKO [4] (Example 3, single agent) it was over 10 µM; in the assay with RKO [4] (Example 4, single agent) it was over 10 µM.
Regarding `CC(=O)Nc1cccc(-n2c(=O)n(C3CC3)c(=O)c3c(Nc4ccc(I)cc4F)n(C)c(=O)c(C)c32)c1` [trametinib, N-(3-{3-cyclopropyl-5-[(2-fluoro-4-iodophenyl)amino]-6,8-dimethyl-2,4,7-trioxo-3,4,6,7-tetrahydropyrido[4,3-d]pyrimidin-1(2H)-yl}phenyl)acetamide], the IC75 in the assay with COLO-678 is given as over 0.1; with GP2d [5] it was over 0.1; with LIM2405 it was 0.008; in the assay with LS-180 [6], 0.014; with LoVo [7], 0.018; in the assay on RKO [8], over 0.1. In the assay with SW48, the IC75 is listed as 0.003. Moreover, in the assay with HCT-116 xenografts (nude mice, oral, COMPOUND A 100 mg/kg 3qw, trametinib 0.3 mg/kg q24h, ABT-263 100 mg/kg q24h, 9 days of treatment), the “tumor response (% change tumor volume)” value is listed as “progressive disease”.
